ChEMBL document CHEMBL3507680, “University of Dundee, Gates Library screen for HepG2 cell viability”

Assay: Human HepG2 cell viability assay in 384 well format
Type: toxicity, cell-based
Set-up: dose 125 nL, time 70.5 hour; concentration not given beside the values
Settings: HepG2 cells, read-out: Inhibition

Compound | cytotoxicity at 70.5 h [%]
Cc1nc(N2CCCC2)nc2c1CCN(C(=O)NC1CCCC1)CC2 | 1.4
CCCN1CCCN(c2ncccc2C(=O)N2CCCCC2)CC1 | -2.98
O=C(CCC1CCCO1)NCCN1CCCCC1 (centres undefined) | -3.64
CCOCCCC(=O)NS(=O)(=O)c1ccc(C)s1 | -0.611
NC(=O)C1CCN(C(=O)CCCc2nnc(-c3ccccc3)o2)C1 (centres undefined) | -0.453
COc1cc(C(C)=O)ccc1OCC(=O)c1cccn1C | 32.2
Cc1cccc(Cn2cc(C)c(N)n2)c1 | -1.64
CC(NC(=O)CN1C=Nc2ccccc2S1(=O)=O)C1CC1 (centres undefined) | 11
N#Cc1cccc(CNC(=O)C2=NN(c3ccccc3)C(=O)CN2)c1 | 9.97
CCc1cc(NC(=O)C2CCCN(C(=O)NCC(C)C)C2)[nH]n1 (centres undefined) | -17.1
COc1cc(CNC2CCCc3c2cnn3C)cc(OC)c1 (centres undefined) | -16.8
COc1ccc(N(c2ccc(OC)cc2)c2ccc(C(=O)O)s2)cc1 | -3.85
CN(C)Cc1cc(-c2nccn2CCn2cccn2)ccc1O | -11.1
COCCN(C)C[C@@H]1CCC[C@@H]2CN(c3cc(OC)ncn3)C[C@@H]21 | -4.84
CN(C)Cc1cnn(-c2ccccc2C(=O)N(C)Cc2ccccc2)c1 | -5.67
CC(C)(C)n1ncc2c(=O)n(CC(=O)NCc3ccccc3Cl)cnc21 | -0.0412
COCc1noc(CN2C[C@H](C3CC3)[C@@H](N(C)C)C2)n1 | -8.41
O=C(O)c1cnc(OCC2CC2)c(Br)c1 | -4.12
COc1cc2c(cc1C1CC(=O)NCc3nc(N(C)C)sc31)CCC2 (centres undefined) | 0.498
CC(C)(C(=O)NCc1ccc(C#N)cc1)n1cc(Br)cn1 | -2.27
CCCN1CCCn2nc(CNC(=O)C3CCOC3)cc2C1 (centres undefined) | -2.94
CCc1nc(CC)n(CC(=O)NCc2cccc(C)c2)n1 | -6.53
CC(C)CNC(=O)Nc1ccc(CN2CCOC2=O)cc1 | -13.4

Compound | cytotoxicity at 70.5 h [%]
COC(=O)c1cccc2nc([C@H]3CCN(CC(C)C)C3)oc12 | -4.07
COc1ccc(C(C)NC(=O)NCCNc2ccccn2)c(OC)c1 (centres undefined) | 27.8
Cc1nccn1C1CCCN(C(=O)c2cnn(C)c2C2CC2)C1 (centres undefined) | -0.648
COc1ncc(-c2cc(-c3ccn(C)c3)nc(N)c2C#N)cn1 | 7.14
CCC(C)NC(=O)c1coc(COc2cccc(F)c2)n1 (centres undefined) | -3.12
Cc1cc(CN2CCC3(CC2)CC(Nc2ncccn2)CO3)nn1C (centres undefined) | -35.4
COc1ccccc1C(C)N1CCN(S(C)(=O)=O)CC1 (centres undefined) | 11.4
O=C(O)CCc1cc2n(n1)CCCN(C(=O)c1ccc3cc[nH]c3c1)C2 | -14
CS(=O)(=O)c1cccc(S(=O)(=O)NCCCN2CCNC(=O)C2)c1 | -5.37
O=c1cc(N2CCCC2)cnn1CCc1cccc(F)c1 | 34.6
Cc1nn(C)c(C)c1C1CCCN1C(=O)c1ccc(CN(C)C)cc1 (centres undefined) | 15.1
COCC(=O)N1CCC2(CCCN(Cc3cc(OC)ccc3F)C2)C1 (centres undefined) | -7.78
CCn1nnc(NCc2ccccc2OCc2ccc(Cl)cc2)n1 | -7.27
COC(=O)c1ccc(N2CCN(CCC#N)C(C)C2)cc1 (centres undefined) | 11.4
CCOC(=O)[C@@H]1CN2CCNC[C@@H]2[C@H]1c1ccccc1 | -7.39
O=C(NCc1ccccn1)[C@]12COC[C@H]1CN(Cc1cccnc1)C2 | -7.77
NC(=O)c1cnc2n1CCN(C(=O)c1ccc(-c3cc[nH]n3)cc1)C2 | -10.3
CCN(CC)C(=O)c1ccc(NC(=O)CNc2ccc(F)cc2Cl)cc1 | -6.34
Cc1ccc(C2(CN(C)Cc3snnc3C)CCNCC2)nc1 | -1.57
CC(C)CN1C[C@@H]2CN(c3cnccn3)C[C@@H]2C1=O | 29.2
CC(NC(=O)N1CCNC(=O)CC1)c1ccc(C(F)(F)F)cc1 (centres undefined) | -19.2
CCOCCN1CCN(Cc2nnc(C3CC3)o2)CC1C (centres undefined) | -3.62
Cc1nc(C2CCCN2C(=O)Cn2cncn2)no1 (centres undefined) | -9.87

Compound | cytotoxicity at 70.5 h [%]
Cc1nn(C)c(C)c1C1COCCN1C(=O)CC(C)(C)C (centres undefined) | 24.2
Cc1nc2[nH]cnc(Nc3ccn(C)n3)c-2n1 | -4.89
COc1cccc(C(=O)N2CCN(Cc3nc(C(C)C)no3)CC2)c1 | -5.91
CCNC(=O)CN(CC)C(=O)c1cc(-c2cccc(Cl)c2)no1 | -0.184
Cc1nc(C)n(CC2CCCN2CCCc2nc3ccccc3o2)n1 (centres undefined) | -5.85
CNc1ccnc(N2CC[C@@](O)(C3CCOCC3)[C@H](C)C2)n1 | -7.76
Cc1cc(C[C@@H]2COC[C@H]2NCc2ccc(Cl)c(Cl)c2)on1 | 19.8
COCC(NC1CCN(CC(C)C)CC1)c1ccnn1C (centres undefined) | -6.73
COc1ccc(CNC(=O)c2nn(C)c3c2CS(=O)(=O)CC3)cc1OC | 1.56
CS(=O)(=O)NCCC(=O)NC1CCc2nccn2C1 (centres undefined) | -4.75
O=C(C1CCC2(CCN(CC3CCOCC3)CC2)O1)N1CCCC1 (centres undefined) | 4.83
CN1CCOC(CN(C(=O)CN2CCCC2=O)c2nccs2)C1 (centres undefined) | 9.36
CCCS(=O)(=O)N1CCN(c2cc(-n3nc(C)cc3C)nc(C)n2)CC1 | -10.3
O=C(NCCNc1ccccn1)NCC1CCS(=O)(=O)C1 (centres undefined) | 4.42
Clc1ccccc1OCCc1cc(C2CCNC2)n[nH]1 (centres undefined) | -4.47
Cc1ccc(CN2CC[C@H]3C[C@@H](c4nc(C5CC5)cs4)O[C@@H]3C2)o1 | -7.46
O=C1OCCN1Cc1ccc(C(F)(F)F)cc1F | -6.21
N#Cc1c(CN2CCCCC2Cn2cncn2)cn2ccccc12 (centres undefined) | 5.14
CCc1ncncc1C(=O)Nc1ccc2ccn(CCN(C)C)c2c1 | -9.77
CC(CNC(=O)Nc1ccc(F)cc1Br)N1CCOCC1 (centres undefined) | 31.4
Cc1ccc(C#N)c(N2CCC(c3nccn3CCN(C)C)CC2)n1 | -7.04
CC1CCN(C(=O)[C@H]2C[C@@H]3CCN(CC4CCOCC4)C[C@H]3O2)CC1 | -6.03
CC1CCCN(Cc2ccc(OCc3nccn3C)cc2)C1 (centres undefined) | 14.2

Compound | cytotoxicity at 70.5 h [%]
COc1cccc(NC(=O)NC2(c3noc(CN(C)C)n3)CCCC2)c1 | -10.2
CCn1cc(NC(=O)C2CCC(=O)N2Cc2ccco2)cn1 (centres undefined) | -6.35
CCC(CO)NCc1ccc(-c2ccc(Cl)cc2)o1 (centres undefined) | 7.49
C[C@@H]1CN(C2CCCCC2)CC[C@@]1(O)C1CCOCC1 | -16
CN(C)CC1CN(Cc2c(Cl)ccc3cccnc23)CCO1 (centres undefined) | -4.72
CCn1nc(CC(C)C)cc1C(=O)N1CC(N2CCCCC2C)C1 (centres undefined) | -2.38
O=C(CCc1ccncc1)Nc1ccc(OCC2CCOCC2)cc1 | -13.6
CCN(C(=O)CN1CCn2c(nnc2C2CC2)C1)C1=CCCCC1 | -14.8
CNC(=O)CCS(=O)(=O)Cc1coc(-c2ccc(F)cc2)n1 | -20.2
Cc1cc(C(=O)NCCN2CCCC(C)C2)nn1C (centres undefined) | -5.9
O=C(NCC1CCCN(Cc2cccc3nonc23)C1)c1ccc[nH]1 (centres undefined) | 3.08
COc1ccc(CNC2CCC(O)CC2)cc1OCCCC#N (centres undefined) | -5.82
Cn1cc(-c2ncc3c(c2C(=O)O)CCN(CC2CC2)C3)cn1 | -1.4
CN(C)C[C@H]1O[C@H](Cc2cc(-c3ccccn3)on2)CC[C@@H]1O | -4.76
CCNc1ccnc(N2Cc3cnn(Cc4ccc(F)cc4)c3C2)n1 | -4
Cc1noc(CCCC(=O)NCC(c2ccco2)N2CCCC2)n1 (centres undefined) | -14.9
COCCNC(=O)c1cc2c(s1)CCN2C(=O)c1ccccc1 | 6.46
OCCOCCN1CCCC1c1nc2cc(F)ccc2[nH]1 (centres undefined) | 12
COc1ccc2c(c1)c(C(=O)Nc1cc(C)n(C)n1)cn2C(C)C | -0.21
Cc1cc(C)c(CNc2ncnc3ccsc23)c(=O)[nH]1 | -9.82
Cn1cnnc1C1CCCN(C(=O)NCCc2ccccc2F)C1 (centres undefined) | -11.6
CCNC(=O)N1C[C@@H]2OCC(=O)N(C(C)C)[C@@H]2C1 | -0.389
CC(Cc1ccccc1F)NC(=O)CCc1nc(-c2nnc[nH]2)no1 (centres undefined) | -4.06

Compound | cytotoxicity at 70.5 h [%]
Cc1nn(C)cc1CNCc1ccc(N(C)C)cc1 | 1.1
O=C(NCC1CCS(=O)(=O)C1)N(Cc1ccccn1)C1CC1 (centres undefined) | -6.34
CCS(=O)(=O)N1CCN(Cc2ccncc2)c2nc(C)ccc2C1 | -5.64
CCOc1ccc(-n2nnc(C(=O)O)c2-c2ccncc2)cc1 | 12.9
O=C(Cc1ccon1)N1CCc2cc(Br)sc2C1 | -3.84
CC(C)C[C@H](NC(=O)CNC(=O)OC(C)(C)C)C(=O)OC(C)(C)C | -0.919
O=C(NCC(F)F)c1ccc(S(=O)(=O)N2CCCC(O)C2)cc1 (centres undefined) | 18.2
Oc1ccccc1-c1n[nH]c(C2CC2)n1 | 11.6
CCSc1ccc(NC(=O)NC(C)c2c(C)nn(C)c2C)cn1 (centres undefined) | -13.5
CC(CC(=O)Nc1ncn(CC(=O)NCc2ccccc2)n1)C1CC1 (centres undefined) | -14.7
Cc1nc(C2CCCN(C(=O)c3ccc(N4CCCC4)nc3)C2)no1 (centres undefined) | 1.03
COc1ccc(CCNCc2c(C)nn(C)c2N(C)C)cc1OC | -1.22
OCc1ccc(CN2CCC(n3cc(-c4ccc(F)cc4)nn3)CC2)o1 | -8.09
CC(=O)N1CCOC(Cc2cccc(C(F)(F)F)c2)C1 (centres undefined) | -4.91
CC(C)NC(=O)N1CCC(c2nccn2C(C)C)CC1 | -3.22
CC(NC(=O)c1cccs1)C(=O)NCc1cccnc1N1CCCCC1 (centres undefined) | -16.1
Cc1cc(NCCc2c(C)n[nH]c2C)nc(-c2cccnc2)n1 | 20.8
CS(=O)(=O)N1CCC(C(=O)NC(Cc2ccsc2)c2ccccn2)CC1 (centres undefined) | -3.67
Cc1oc(C)c(C(=O)N2CCCN(Cc3cscn3)CC2)c1C | 5.51
CC(C)(C)C(=O)N1CCC(n2cc(C3(O)CCCC3)nn2)CC1 | -9.39
Cc1cc(C(=O)NCC(=O)N2CCOCC2)nn1C(C)(C)C | -17.2
Cc1ncc(C(=O)OCC2CCN(c3ccccc3)C2)s1 (centres undefined) | -126
